Source: PubChem BioAssay AID179 (DTP/NCI, 2004)
Calls of active or inactive are those of the source.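 The calls were made as follows: active = compounds giving half or more protection of infected cells from virus-caused growth loss, again on retest; inactive = the rest.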

Test system: CEM cells HIV-1 protection, formazan growth assay
Assay: NCI AIDS Antiviral Assay
Settings: for IC50: measured here: growth of uninfected CEM cells
In short: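 Protection of CEM cells against HIV-1 was scored from cell growth (soluble formazan) across five concentrations, with parallel uninfected cells. Lack of protection may reflect toxicity.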

Row | SMILES | outcome | EC50 | IC50
1 | C=CCNC(=S)N/C=C(/C#N)C(=O)OC | inactive | – | –
2 | CC1C(=O)N(C)C2(CO)C(=O)O[C@H](C)C12O (some centres undefined) | inactive | – | –
3 | C/C(CC(=O)Nc1ccc(NC(=O)/C(C)=N/NS(=O)(=O)c2ccc(C)cc2)cc1)=N\NS(=O)(=O)c1ccc(C)cc1 | – | > 158 µM | > 158 µM
4 | C[N+](C)(C)CC1Cc2ccccc2C1=O (centres undefined) | inactive | – | –
5 | CC1NC(=O)C(C)C(c2ccccc2)N(N=O)C1c1ccccc1 (centres undefined) | – | > 209 µM | 186 µM
6 | O=[N+]([O-])c1cccnc1NCC1(CO)CCCC1 | – | > 200 µM | 46.8 µM
7 | Cc1ccc(S(=O)OC2c3ccccc3Cc3ccccc32)cc1 (centres undefined) | inactive | – | –
8 | CC(=O)Nc1ccc(C(=O)NN2C(=O)C(Cl)C2c2ccc(O)cc2)cc1 (centres undefined) | – | > 200 µM | > 200 µM
9 | O=C(CCc1ccc(O)cc1)NCCc1cccc(OCc2ccccc2)c1 | – | > 200 µM | 26.3 µM
10 | CCOC(=O)c1cnc2c(ccc3ncccc32)c1NCCCN(CC)CC | – | > 69.2 µM | 9.55 µM
11 | COP1(=O)OCC(C)(C)CO1 | – | > 1380 µM | > 1380 µM
12 | COc1ccc(C(=O)O)c2c(=O)c3cccnc3[nH]c12 | inactive | – | –
13 | CCOC(=O)c1nc2ccc(C(F)(F)F)cc2nc1NCc1cc(OC)c(OC)c(OC)c1 | – | > 126 µM | > 126 µM
14 | O=C(/C(=N/Nc1ccccc1)c1ccc([N+](=O)[O-])cc1)c1ccc([N+](=O)[O-])cc1 | inactive | – | –
15 | C=CC[P@@]1(=O)O[C@H](c2ccccc2)C(C)N1C(C)C (some centres undefined) | inactive | – | –
16 | O=C(CC(c1ccccc1)c1ccccc1)NCCCCN1CCCCCCC1 | – | > 200 µM | 12.9 µM
17 | Cc1cc(=O)oc2c(C3=NN(C=O)C(c4ccccc4)C3)c(O)ccc12 (centres undefined) | inactive | – | –
18 | COC(NC(=O)Nc1ccc(C)cc1)(C(F)(F)F)C(F)(F)F | – | > 200 µM | 27.5 µM
19 | CCN(CCCl)CCNc1c2ccccc2nc2ccc(OC)cc12 | inactive | – | –
20 | CC(CCC(=O)O)c1ccc(Br)cc1 (centres undefined) | inactive | – | –
21 | Clc1ccc2c(c1)[nH]c1c2nc2sccn21 | inactive | – | –
22 | Nc1nc2c(c(=O)[nH]1)Cc1nc(N)[nH]c(=O)c1C2 | – | > 24.5 µM | > 24.5 µM
23 | O=S(=O)(CCCCl)SCCCCl | – | > 145 µM | 20 µM

Row | SMILES | outcome | EC50 | IC50
24 | NC(=O)C(CSSCC(NC(=O)OCc1ccccc1)C(N)=O)NC(=O)OCc1ccccc1 (centres undefined) | – | > 200 µM | 18.2 µM
25 | CC(C)C1=CC2=CC(=O)C3C(C)(C)CCCC3(C)C2=C(O)C1=O (centres undefined) | – | > 20 µM | 4.07 µM
26 | O=C(Nc1ccc(Cl)cc1)NS(=O)(=O)c1coc2cc(F)ccc2c1=O | – | > 200 µM | 63.1 µM
27 | CN(C)C(=O)c1ccc(N=Nc2c(O)c3ccccc3[nH]c2=O)cc1 | – | > 200 µM | 36.3 µM
28 | O=c1cn[nH]c2cccc(Cl)c12 | – | > 117 µM | > 117 µM
29 | NC1CC=C(COC(=O)C(O)(c2ccccc2)C2CC2)CC1 (centres undefined) | – | > 200 µM | > 200 µM
30 | Oc1ccc([I+]c2ccccc2)cc1O | – | > 107 µM | 30.2 µM
31 | Cn1cnc([N+](=O)[O-])c1Sc1ccccc1C(=O)O | – | > 339 µM | > 339 µM
32 | O=c1ccn(C2OC(CN(O)CCC3C(O)C(CO)OC3n3ccc(=O)[nH]c3=O)C(O)C2O)c(=O)[nH]1 (centres undefined) | – | > 200 µM | > 200 µM
33 | C=CCNc1nc(C#N)c(N)s1 | – | > 200 µM | > 200 µM
34 | Cc1ccc(S(=O)(=O)N/N=C(\c2nc3ccc([N+](=O)[O-])cc3[nH]c2=O)C(O)c2ccccc2Cl)cc1 (centres undefined) | inactive | – | –
35 | O=C(CC(=O)c1ccccc1)CC(O)(c1ccccc1)c1ccccc1 | – | > 11 µM | > 11 µM
36 | O=[N+]([O-])c1ccc(-c2ccc(/C=N/n3c(-c4ccc(Cl)cc4)n[nH]c3=S)o2)cc1 | – | > 1.23 µM | > 1.23 µM
37 | Nc1ccc2c(c1)NC(=O)[C@@H]1CCCN1C2=O | – | > 200 µM | > 200 µM
38 | Cc1ncc([N+](=O)[O-])n1CCO | – | > 200 µM | > 200 µM
39 | Cc1ccc(S(=O)(=O)Oc2nc3ccccc3nc2N(S(=O)(=O)c2ccc(C)cc2)S(=O)(=O)c2ccc(C)cc2)cc1 | – | > 200 µM | 17.4 µM
40 | CC(=O)c1c(-c2ccc(O)cc2)oc2cc(O)ccc12 | – | > 347 µM | 63.1 µM
41 | C/C(=N\O)C(CN(C)C)C(c1ccccc1)c1c(O)c2ccccc2oc1=O (centres undefined) | – | > 32.4 µM | 21.9 µM
42 | CC#CCCC1(CC)CCCN(C(=O)OC(C)C)C1OCC (centres undefined) | – | > 32.4 µM | > 32.4 µM
43 | Cc1cc(N(CCC#N)S(C)(=O)=O)ccc1C=Nc1ccc(C(=O)NN2C(=O)/C(=C/c3ccc(N(CCC#N)CCC#N)cc3C)N=C2c2cc([N+](=O)[O-])ccc2Cl)cc1 | – | > 42.7 µM | > 42.7 µM
44 | CCOC(=O)c1ccc(CSc2ccccc2C(=O)O)c([N+](=O)[O-])c1 | – | > 14.5 µM | > 14.5 µM
45 | CC(C)(C)/[N+]([O-])=[N+](\[O-])C(C)(C)C | – | > 200 µM | 33.9 µM
46 | C/C(O)=C(\C=NC(=S)c1ccncc1)C(=O)Nc1ccccc1C | – | > 200 µM | > 200 µM

Row | SMILES | outcome | EC50 | IC50
47 | C[S+](C)(=O)CCCS(=O)(=O)[O-] | – | > 200 µM | > 200 µM
48 | O=C1C=C(C2=CC(=O)C(=O)c3ccccc32)c2ccccc2C1=O | – | > 151 µM | 1.91 µM
49 | O=C(c1ccc(Cl)cc1Cl)C1[C@H]2C(=O)N(c3ccc(Cc4ccc(N5C(=O)[C@@H]6ON(c7ccccc7)C(C(=O)c7ccc(Cl)cc7Cl)[C@@H]6C5=O)cc4)cc3)C(=O)[C@H]2ON1c1ccccc1 (some centres undefined) | – | > 38 µM | > 38 µM
50 | Cc1cc(Br)cc(C)c1NC(=O)C(=O)C1C(=O)C(CC2C(=O)c3ccccc3C2=O)C(=O)CC1(C)C (centres undefined) | – | > 18.2 µM | > 18.2 µM
51 | CC1(C(=O)O)CCCC2(C)C3=CC(=O)CCC3=CCC12 (centres undefined) | – | > 200 µM | 186 µM
52 | NC(=O)NNC(=O)NC12CC3CC(CC(C3)C1)C2 | inactive | – | –
53 | COc1cc2c(c(C3(O)C(=O)N(C)c4ccccc43)c1OC)OCO2 (centres undefined) | – | > 200 µM | > 200 µM
54 | CC(=O)NNc1nc(C)c(C(/C=C/c2ccc3c(c2)OCO3)=N/Nc2ccccc2)s1 | – | > 56.2 µM | > 56.2 µM
55 | CC(=O)C(=[N+]=[N-])C(=O)N1CCOC1=O | – | > 200 µM | > 200 µM
56 | O=C(OCc1ccccc1)N1N=NC2C1C1CC(OCc3ccccc3)(OCc3ccccc3)C2O1 (centres undefined) | – | > 14.8 µM | > 14.8 µM
57 | N.N.N.N.[Cl-].[Co+3].[N-]=[N+]=[N-].[N-]=[N+]=[N-] | inactive | – | –
58 | COC(=O)C(CSSCC(C(=O)NC(Cc1ccccc1)C(=O)NCC(=O)OC(C)(C)C)N1C(=O)CCC1=O)NC(=O)OCc1ccccc1 (centres undefined) | – | > 200 µM | 20.4 µM
59 | CC(=O)N(C(=O)CC(=O)NNCc1ccccc1Cl)c1ccc(Cl)cc1 | – | > 200 µM | > 200 µM
60 | O=C(O)c1cc(Cc2cc(C(=O)O)c(O)c3ccccc23)c2ccccc2c1O | – | > 0.813 µM | > 0.813 µM
61 | Cc1ccc(NC2=NCCO2)c2c1CCC2 | – | > 200 µM | 33.9 µM
62 | CCCCCCCC/C=C\CCCCCCCC(=O)NCCN(CCN)C(=O)CCCCCCC/C=C\CCCCCCCC | – | > 25.1 µM | > 25.1 µM
63 | C/C(CN1C(=O)c2ccccc2C1=O)=N\NS(C)(=O)=O | – | > 851 µM | 589 µM
64 | Cc1[nH]c2c(C)c3c([nH]c4ccc(Cl)cc43)c(C)c2c(=O)c1C | – | > 17 µM | 9.77 µM
65 | CCC(c1ccc(N(C)C)cc1)C1NC(=S)NC1=O (centres undefined) | – | > 200 µM | 25.7 µM
66 | Nc1ncnc2c1ncn2C1CCC(COP(=O)(O)O)O1 (centres undefined) | – | 20 µM | > 200 µM
67 | c1scc2c1COCCOCCOCCOCCOC2 | – | > 832 µM | > 832 µM
68 | COC(=O)c1ccc(NCc2cc(O)ccc2O)cc1 | – | > 200 µM | 11.7 µM
69 | COc1cccc(/C=C2\S/C(=N/Nc3nc(C)c(C)s3)NC2=O)c1O | – | > 200 µM | 129 µM

Row | SMILES | outcome | EC50 | IC50
70 | COc1ccc(C2C3=C(COC3=O)Oc3cc4c(cc32)OCO4)cc1OC (centres undefined) | – | > 20 µM | 0.603 µM
71 | Cn1c(C(O)(Cc2ccccn2)Cc2ccccn2)cc2ccccc21 | – | > 97.7 µM | 72.4 µM
72 | CC1CC(N)=C(C#N)C1(C#N)C#N (centres undefined) | – | > 200 µM | 138 µM
73 | CNC(=O)c1ncn(C2OC(CO)C(O)C2O)n1 (centres undefined) | – | > 200 µM | > 200 µM
74 | OC(CC(O)(C(F)(F)F)C(F)(F)F)c1ccc(C(O)CC(O)(C(F)(F)F)C(F)(F)F)cc1 (centres undefined) | – | > 200 µM | 10.2 µM
75 | COc1ccc(-c2c3c(n(C4OC(CO)C(O)C(O)C4O)c(=S)c2C#N)CC(C)(C)CC3=O)cc1 (centres undefined) | – | > 200 µM | 105 µM
76 | C[N+]1(C)C[C@@H](O)C[C@@H]1C(=O)[O-] | – | > 1580 µM | > 1580 µM
77 | CC(=S)N/C=C(\C#N)c1nc2ccccc2s1 | – | > 200 µM | 107 µM
78 | O=Nc1c2cc3ccccc3[nH]c-2c2ccccc12 | – | > 40.7 µM | 20.4 µM
79 | O=c1c2ccccc2nc(-c2cccc(Cl)c2)n1NC1OC(CO)C(O)C(O)C1O (centres undefined) | inactive | – | –
80 | O=S(Cc1ccccc1)/C(=C/NC(=S)Nc1ccccc1)c1ccccc1 (centres undefined) | – | 182 µM | > 200 µM
81 | C#CCSc1nnnn1-c1ccc(Br)c(C)c1 | – | > 200 µM | –
82 | C=C(Br)CNC(=O)Nc1ccc(Cl)c(Cl)c1 | – | > 200 µM | 21.9 µM
83 | COc1ccc(C(=O)c2ccc(OC)c(S(=O)(=O)O)c2)cc1S(=O)(=O)O | – | > 575 µM | > 575 µM
84 | C=CCP(=O)(c1ccccc1)c1ccccc1 | – | 0.0631 µM | > 200 µM
85 | Fc1cccc(C=NC23CC4CC(CC(C4)C2)C3)c1 | – | > 52.5 µM | > 52.5 µM
86 | CC12CC1C(c1cccc([N+](=O)[O-])c1)(c1cccc([N+](=O)[O-])c1)N=N2 (centres undefined) | – | > 200 µM | 13.5 µM
87 | C/C(=N\NC(=O)c1ccccc1O)c1c(O)cc(C)oc1=O | – | > 85.1 µM | 70.8 µM
88 | O=C(O)OC12CCCCCC1C(=O)C1CCCCC12 (centres undefined) | – | > 200 µM | > 200 µM
89 | O=C(NC(=O)c1cn(C2OC(CO)C(O)C2O)c(=O)[nH]c1=O)OCc1ccccc1 (centres undefined) | – | > 589 µM | > 589 µM
90 | Cc1ccc(/C=C2\N=C(N3CCOCC3)NC2=O)cc1 | – | > 200 µM | > 200 µM
